In patent US20030073672A1, “Method for treating allergies using substituted pyrazoles” (priority 2001, published 2003):

Tests used:
[1] = system: T cell proliferative responses induced by ConA in PBMC; test: Ex vivo human T cell-proliferation assay, ConA control; type: cell-based; settings: PBMC of allergic donors, a pan-T cell mitogen
Description: Reagents. […] Cell culture.

[2] = system: human T cell proliferative responses to house dust mite extracts (Der p, Der f) in PBMC; test: Ex vivo human T cell-proliferation assay, house dust mite extracts; type: cell-based; settings: seven days; for human T cell proliferative responses to Der f: PBMC from an allergy donor, Der f extract, titrated doses of compound, FIG. 3
Description: This proliferation consisted primarily of allergen-specific CD4 T cells.

[3] = system: human T cell proliferative responses to ragweed extracts (short, giant) in PBMC; test: Ex vivo human T cell-proliferation assay, ragweed extracts; settings: PBMC of ragweed-allergic donors, short and giant ragweed extracts, FIG. 2B
[4] = system: invariant chain (Ii) degradation, p10Ii fragment, in PBMC from human blood; test: Monitoring cathepsin S inhibition in human blood (p10Ii Western blot); type: cell-based; settings: incubation for 24 h, SDS-PAGE / Western blot
Protocol: The effect of in vivo administration of cathepsin S inhibitors, in a clinical trial setting, can be monitored by measuring accumulation of an intermediate degradation product of invariant chain (Ii), i.e. the p10Ii fragment, in blood of dosed subjects. After administration of a cathepsin inhibitor for a certain period of time, for example, between 0.01 and 50 mg/kg/day, to result in a blood concentration of between 1 nM-10 μM, for 16-30 h, blood is drawn and white blood cells are purified, e.g. either by lysis of red blood cells or by a Ficoll-Hypaque gradient centrifugation. Whole cell lysates of WBC are then made and analyzed by either a Western blot assay or an ELISA assay. For the Western blot assay, cell lysates are first resolved on SDS-PAGE gels. After transferring to nitrocellulose membranes, Ii and its intermediate degradation products, including the p10Ii, can be detected using a mouse mAb against Ii, e.g. Pin.1, or rabbit polyclonal antibodies specific for the C-terminus of the p10Ii fragment or against the entire p10Ii fragment. For ELISA assay, a pair of antibodies against Ii, including Pin1.1, and a rabbit polyclonal antibody or a mouse monoclonal antibody specific for p10Ii, can be used. The same assay can also be applied to monitor the effect of cathepsin S inhibitors in vivo in animal studies, for example in monkeys, dogs, pigs, rabbits, guinea pigs, and rodents.

allergic volunteers = test: Monitoring in vivo inhibition of allergenic response (cutaneous reactions); settings: allergens deposited subcutaneously

Compound	T cell proliferative responses induced by ConA [1]	human T cell proliferative responses to Der f [2]	T cell proliferation (3H-thymidine incorporation) induced by ragweed extracts [3]	p10Ii fragment accumulation (block in the degradation of Ii) [4]	T cell proliferation (3H-thymidine incorporation) induced by HDM extracts ([2]; PBMC of HDM-allergic donors, Der p or Der f extracts, FIG. 1B)	immediate weal and flare response (allergic volunteers; 15 min)	late phase response (induration) (allergic volunteers; 6 h and 24 h)
N#Cc1ccccc1N1CCN(CC(Cn2nc(-c3ccc(I)cc3)c3c2CCN(C(N)=O)C3)OC(N)=O)CC1 (stereo not shown) [Example 11, Carbamic acid 1-[5-carbamoyl-3-(4-iodo-phenyl)-4,5,6,7-tetrahydro-pyrazolo[4,3-c]pyridin-1-ylmethyl]-2-[4-(2-cyano-phenyl)-piperazin-1-yl]-ethyl Ester]	but not ConA	inhibition					
CS(=O)(=O)N1CCc2c(c(-c3ccc(I)cc3)nn2CC(O)CN2CCN(c3ccccc3C#N)CC2)C1 (stereo not shown) [Example 36, 2-(4-{2-Hydroxy-3-[3-(4-iodo-phenyl)-5-methanesulfonyl-4,5,6,7-tetrahydro-pyrazolo[4,3-c]pyridin-1-yl]-propyl}-piperazin-1-yl)-benzonitrile]	but not ConA	inhibition					
CC(C)C[C@H](NC(=O)N1CCOCC1)C(=O)N[C@H](/C=C/S(=O)(=O)c1ccccc1)CCc1ccccc1 [LHVS, 4-morpholinecarboxamide, N-[(1S)-3-methyl-1-[[[(1S,2E)-1-(2-phenylethyl)-3-(phenylsulfonyl)-2-propenyl]amino]carbonyl]butyl]-]	not affected		strongly inhibited	the p10Ii fragment was seen	strongly inhibited		
C[C@]12C=CC(=O)C=C1CC[C@@H]1[C@@H]2C(=O)C[C@@]2(C)[C@H]1CC[C@]2(O)C(=O)CO [Prednisone, prednisone]						inhibit both the immediate and the late phase responses	inhibit both the immediate and the late phase responses
